Source: ChEMBL document CHEMBL5209563, “FFN206 based assay for SLC18A1 using HEK-293 SLC18A1 OE cells” (2022)
Activity calls are given as the source filed them. The rule behind the calls is not given here.

Biological target: T1, Chromaffin granule amine transporter (Homo sapiens, UniProt P54219)
T1 sequence (P54219 whole entry): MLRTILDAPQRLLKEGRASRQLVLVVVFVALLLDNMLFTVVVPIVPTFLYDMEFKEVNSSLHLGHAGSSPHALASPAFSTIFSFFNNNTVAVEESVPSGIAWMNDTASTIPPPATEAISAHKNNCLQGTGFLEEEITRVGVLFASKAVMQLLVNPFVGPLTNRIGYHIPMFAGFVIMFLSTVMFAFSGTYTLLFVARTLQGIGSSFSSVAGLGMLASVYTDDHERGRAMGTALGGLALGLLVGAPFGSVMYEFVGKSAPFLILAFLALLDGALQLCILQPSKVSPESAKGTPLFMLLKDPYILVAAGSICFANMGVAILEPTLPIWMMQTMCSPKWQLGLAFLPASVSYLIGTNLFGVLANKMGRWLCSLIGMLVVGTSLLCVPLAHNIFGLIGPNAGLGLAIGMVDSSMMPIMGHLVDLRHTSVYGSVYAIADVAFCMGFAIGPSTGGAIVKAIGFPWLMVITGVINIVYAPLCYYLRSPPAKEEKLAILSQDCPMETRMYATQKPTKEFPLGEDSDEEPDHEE
Experiment: Substrate uptake and inhibition of the chromaffin granule amine transporter (VAT1, VMAT1, SLC18A1) as assessed by uptake of a fluorescent substrate (FFN206) in HEK-293 JumpIN-SLC18A1 cells (PubChem AID: 1794818)
Type: functional, cell-based, HEK293

SMILES | IC50 | EC50
COc1cc2c(cc1OC)C1CC(=O)C(CC(C)C)CN1CC2 (stereo not drawn) [TETRABENAZINE] | > 10 µM (inactive) | 
COC(=O)[C@H]1[C@H]2C[C@@H]3c4[nH]c5cc(OC)ccc5c4CCN3C[C@H]2C[C@@H](OC(=O)c2cc(OC)c(OC)c(OC)c2)[C@@H]1OC [RESERPINE] | 0.05 µM | 
CNc1ccc2c(CCN)cc(=O)oc2c1 |  | 2000 nM
